Target: T1, human FXR (Homo sapiens, UniProt Q96RI1)
T1 construct: expressed in transfected cells; host or cells: HEK293 cells stably carrying a 5xGal4-response-element firefly luciferase reporter, transiently transfected with pcDNA3.1-Gal4-FXR
T1 sequence (Q96RI1 262-486 limits assumed): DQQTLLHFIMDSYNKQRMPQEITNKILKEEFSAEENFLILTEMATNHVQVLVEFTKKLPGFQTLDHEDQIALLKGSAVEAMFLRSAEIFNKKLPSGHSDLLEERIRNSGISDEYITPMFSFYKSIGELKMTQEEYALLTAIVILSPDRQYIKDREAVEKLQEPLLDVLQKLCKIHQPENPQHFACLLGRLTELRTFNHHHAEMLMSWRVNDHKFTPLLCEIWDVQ
Assay: transient human FXR/Gal4-luciferase reporter assay
Format: cell-based
Conditions: Gal4-hFXR transfected HEK293 reporter cells; relative to 8 μM GW-4064
How it was run: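 HEK293 cells stably carrying a 5×Gal4-response-element firefly luciferase reporter, transiently transfected overnight with a CMV-driven Gal4 DNA-binding domain/human FXR ligand-binding domain fusion.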

Row | EC50 [nM] | SMILES
1 | 3970 | Cn1cc(C(=O)O)c2ccc(N3CCC4(C=C(c5c(C6CCCCC6)noc5C5CC5)C4)CC3)cc21 [Example 168, 6-(2-(3-Cyclohexyl-5-cyclopropylisoxazol-4-yl)-7-azaspiro[3.5]non-1-en-7-yl)-1-methyl-1H-indole-3-carboxylic acid]
2 | 1300 | Cc1cc(C(=O)O)nc(N2CCC3(C=C(c4c(-c5ccccc5C(F)(F)F)noc4C4CC4)C3)CC2)n1 [Example 169, 2-(2-(5-Cyclopropyl-3-(2-(trifluoromethyl)phenyl)isoxazol-4-yl)-7-azaspiro[3.5]non-1-en-7-yl)-6-methylpyrimidine-4-carboxylic acid]
3 | 1750 | Cc1c(N2CCC3(C=C(c4c(-c5ccccc5C(F)(F)F)noc4C4CC4)C3)CC2)ccc2cc(C(=O)O)cnc12 [Example 170, 7-(2-(5-Cyclopropyl-3-(2-(trifluoromethyl)phenyl)isoxazol-4-yl)-7-azaspiro[3.5]non-1-en-7-yl)-8-methylquinoline-3-carboxylic acid]
4 | 1870 | O=C(O)c1ccc(N2CCC3(C=C(c4c(-c5ncccc5Cl)noc4C4CC4)C3)CC2)nc1 [Example 171, 6-(2-(3-(3-Chloropyridin-2-yl)-5-cyclopropylisoxazol-4-yl)-7-azaspiro[3.5]non-1-en-7-yl)nicotinic acid]
5 | 2370 | Cn1c(C(=O)O)cc2cc(N3CCC4(C=C(c5c(-c6ccccc6OC(F)(F)F)noc5C5CC5)C4)CC3)ncc21 [Example 172, 5-(2-(5-Cyclopropyl-3-(2-(trifluoromethoxy)phenyl)isoxazol-4-yl)-7-azaspiro[3.5]non-1-en-7-yl)-1-methyl-1H-pyrrolo[2,3-c]pyridine-2-carboxylic acid]
6 | 2790 | Cn1nc(N2CCC3(C=C(c4c(-c5ccccc5OC(F)(F)F)noc4C4CC4)C3)CC2)c2ncc(C(=O)O)cc21 [Example 173, 3-(2-(5-Cyclopropyl-3-(2-(trifluoromethoxy)phenyl)isoxazol-4-yl)-7-azaspiro[3.5]non-1-en-7-yl)-1-methyl-1H-pyrazolo[4,3-b]pyridine-6-carboxylic acid]
7 | 236 | Cn1nc(C(=O)O)c2cc(N3CCC4(C=C(c5c(-c6ccccc6OC(F)(F)F)noc5C5CC5)C4)CC3)ccc21 [Example 174, 5-(2-(5-Cyclopropyl-3-(2-(trifluoromethoxy)phenyl)isoxazol-4-yl)-7-azaspiro[3.5]non-1-en-7-yl)-1-methyl-1H-indazole-3-carboxylic acid]
8 | 3240 | Cn1nc(C#N)c2ccc(N3CCC4(C=C(c5c(-c6ccccc6OC(F)(F)F)noc5C5CC5)C4)CC3)cc21 [Example 175, 6-(2-(5-Cyclopropyl-3-(2-(trifluoromethoxy)phenyl)isoxazol-4-yl)-7-azaspiro[3.5]non-1-en-7-yl)-1-methyl-1H-indazole-3-carbonitrile]
9 | 121 | O=C(O)c1cnc2nc(N3CCC4(C=C(c5c(-c6c(Cl)cccc6Cl)noc5C5CC5)C4)CC3)sc2c1 [Example 177, 2-(2-(5-Cyclopropyl-3-(2,6-dichlorophenyl)isoxazol-4-yl)-7-azaspiro[3.5]non-1-en-7-yl)thiazolo[4,5-b]pyridine-6-carboxylic acid]
10 | 172 | O=C(O)c1cnc2cc(N3CCC4(C=C(c5c(-c6ccccc6C(F)(F)F)noc5C5CC5)C4)CC3)ccc2n1 [Example 178, 6-(2-(5-Cyclopropyl-3-(2-(trifluoromethyl)phenyl)isoxazol-4-yl)-7-azaspiro[3.5]non-1-en-7-yl)quinoxaline-2-carboxylic acid]
11 | 13 | O=C(NS(=O)(=O)C1CC1)c1cc(F)c2nc(N3CCC4(C=C(c5c(-c6c(Cl)cccc6Cl)noc5C5CC5)C4)CC3)sc2c1 [Example 179, 2-(2-(5-Cyclopropyl-3-(2,6-dichlorophenyl)isoxazol-4-yl)-7-azaspiro[3.5]non-1-en-7-yl)-N-(cyclopropylsulfonyl)-4-fluorobenzo[d]thiazole-6-carboxamide]
12 | 35 | CS(=O)(=O)NC(=O)c1cc(F)c2nc(N3CCC4(C=C(c5c(-c6c(Cl)cccc6Cl)noc5C5CC5)C4)CC3)sc2c1 [Example 180, 2-(2-(5-Cyclopropyl-3-(2,6-dichlorophenyl)isoxazol-4-yl)-7-azaspiro[3.5]non-1-en-7-yl)-4-fluoro-N-(methylsulfonyl)benzo[d]thiazole-6-carboxamide]
13 | 60 | O=C(NS(=O)(=O)C1CC1)c1cc(F)c2nc(N3CCC4(C=C(c5c(-c6c(Cl)cncc6Cl)noc5C5CC5)C4)CC3)sc2c1 [Example 181, 2-(2-(5-Cyclopropyl-3-(3,5-dichloropyridin-4-yl)isoxazol-4-yl)-7-azaspiro[3.5]non-1-en-7-yl)-N-(cyclopropylsulfonyl)-4-fluorobenzo[d]thiazole-6-carboxamide]
14 | 688 | CS(=O)(=O)NC(=O)c1cc(F)c2nc(N3CCC4(C=C(c5c(-c6c(Cl)cncc6Cl)noc5C5CC5)C4)CC3)sc2c1 [Example 182, 2-(2-(5-Cyclopropyl-3-(3,5-dichloropyridin-4-yl)isoxazol-4-yl)-7-azaspiro[3.5]non-1-en-7-yl)-4-fluoro-N-(methylsulfonyl)benzo[d]thiazole-6-carboxamide]
15 | 55 | O=C(NS(=O)(=O)C1CC1)c1cc(C(F)(F)F)c2cc(N3CCC4(C=C(c5c(-c6c(Cl)cncc6Cl)noc5C5CC5)C4)CC3)ccc2n1 [Example 183, 6-(2-(5-Cyclopropyl-3-(3,5-dichloropyridin-4-yl)isoxazol-4-yl)-7-azaspiro[3.5]non-1-en-7-yl)-N-(cyclopropylsulfonyl)-4-(trifluoromethyl)quinoline-2-carboxamide]
16 | 16 | CS(=O)(=O)NC(=O)c1cc(OC(F)F)c2cc(N3CCC4(C=C(c5c(-c6c(Cl)cncc6Cl)noc5C5CC5)C4)CC3)ccc2n1 [Example 185, 6-(2-(5-Cyclopropyl-3-(3,5-dichloropyridin-4-yl)isoxazol-4-yl)-7-azaspiro[3.5]non-1-en-7-yl)-4-(difluoromethoxy)-N-(methylsulfonyl)quinoline-2-carboxamide]
17 | 13 | CS(=O)(=O)NC(=O)c1cc(OC(F)F)c2cc(N3CCC4(C=C(c5c(-c6ccccc6C(F)(F)F)noc5C5CC5)C4)CC3)ccc2n1 [Example 186, 6-(2-(5-Cyclopropyl-3-(2-(trifluoromethyl)phenyl)isoxazol-4-yl)-7-azaspiro[3.5]non-1-en-7-yl)-4-(difluoromethoxy)-N-(methylsulfonyl)quinoline-2-carboxamide]
18 | 63 | CS(=O)(=O)NC(=O)c1cc(OC(F)F)c2cc(N3CCC4(C=C(c5c(-c6cnccc6C(F)(F)F)noc5C5CC5)C4)CC3)ccc2n1 [Example 187, 6-(2-(5-Cyclopropyl-3-(4-(trifluoromethyl)pyridin-3-yl)isoxazol-4-yl)-7-azaspiro[3.5]non-1-en-7-yl)-4-(difluoromethoxy)-N-(methylsulfonyl)quinoline-2-carboxamide]
19 | 43 | O=C(NS(=O)(=O)C1CC1)c1cc(OC(F)F)c2cc(N3CCC4(C=C(c5c(-c6cnccc6C(F)(F)F)noc5C5CC5)C4)CC3)ccc2n1 [Example 188, 6-(2-(5-Cyclopropyl-3-(4-(trifluoromethyl)pyridin-3-yl)isoxazol-4-yl)-7-azaspiro[3.5]non-1-en-7-yl)-N-(cyclopropylsulfonyl)-4-(difluoromethoxy)quinoline-2-carboxamide]
